Tests used:
Assay in all cases: relative viability (nuclei count vs DMSO), 5 days (fraction); higher = more cells survive
[1] = compound: CCN1C(=O)C2=CC(=C(N=C2N(C1=O)C3CC3)N)C(=O)N + CS(=O)(=O)CCNCc1ccc(-c2ccc3ncnc(Nc4ccc(OCc5cccc(F)c5)c(Cl)c4)c3c2)o1 [Lapatinib] (partner 2 µM)
Summary of the method: (§1)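 Nuclei were stained with Hoechst during a one-step fixation (final 0.05% Triton X-100, 1% formaldehyde, 1 ug/ml Hoechst) carried out 5 days after dosing, then counted on 4× images. The cells, lung cancer lines in 1536-well plates, had been dosed by pin tool the day after seeding with one drug alone or a fixed anchor-drug dose plus five library-drug doses (not always all listed) in √10 steps. Relative viability is the nuclei count in treated wells divided by that in vehicle wells, and each value is the median of duplicate plates.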

[2] = compound: CCN1C(=O)C2=CC(=C(N=C2N(C1=O)C3CC3)N)C(=O)N + Nc1nc2[nH]cc(CCc3ccc(C(=O)N[C@@H](CCC(=O)O)C(=O)O)cc3)c2c(=O)[nH]1 [Pemetrexed] (partner 0.2 µM)
Summary of the method: as §1

[3] = compound: CCN1C(=O)C2=CC(=C(N=C2N(C1=O)C3CC3)N)C(=O)N + CS(=O)(=O)N1CCN(Cc2cc3nc(-c4cccc5[nH]ncc45)nc(N4CCOCC4)c3s2)CC1 [Pictilisib] (partner 1 µM)
Summary of the method: as §1

[4] = compound: CCN1C(=O)C2=CC(=C(N=C2N(C1=O)C3CC3)N)C(=O)N + CC(C)C[C@H](NC(=O)[C@H](Cc1ccccc1)NC(=O)c1cnccn1)B(O)O [Bortezomib] (partner 0.002 µM)
Summary of the method: as §1

[5] = compound: CCN1C(=O)C2=CC(=C(N=C2N(C1=O)C3CC3)N)C(=O)N + CC(=O)c1c(C)c2cnc(Nc3ccc(N4CCNCC4)cn3)nc2n(C2CCCC2)c1=O [Palbociclib] (partner 0.5 µM)
Summary of the method: as §1

Cell Line | relative viability ([1]; first compound 0.253 µM) | relative viability ([1]; first compound 0.8 µM) | relative viability ([1]; first compound 2.53 µM) | relative viability ([1]; first compound 8 µM) | relative viability ([2]; first compound 0.253 µM) | relative viability ([2]; first compound 0.8 µM) | relative viability ([2]; first compound 2.53 µM) | relative viability ([2]; first compound 8 µM) | relative viability ([3]; first compound 0.253 µM) | relative viability ([3]; first compound 0.8 µM) | relative viability ([3]; first compound 2.53 µM) | relative viability ([3]; first compound 8 µM) | relative viability ([4]; first compound 0.253 µM) | relative viability ([4]; first compound 0.8 µM) | relative viability ([4]; first compound 2.53 µM) | relative viability ([4]; first compound 8 µM) | relative viability ([5]; first compound 0.253 µM) | relative viability ([5]; first compound 0.8 µM) | relative viability ([5]; first compound 2.53 µM) | relative viability ([5]; first compound 8 µM)
NCI-H2023 | 0.51 | 0.813 | 0.777 | 0.776 | 0.198 | 0.182 | 0.222 | 0.247 | 0.229 | 0.218 | 0.23 | 0.26 | 0.829 | 0.915 | 0.95 | 0.984 | 0.438 | 0.39 | 0.313 | 0.382
NCI-H2085 | 0.721 | 0.782 | 0.743 | 0.68 | 0.914 | 0.847 | 0.987 | 0.851 | 0.418 | 0.397 | 0.444 | 0.42 | 0.971 | 1.1 | 1.04 | 0.996 | 0.479 | 0.446 | 0.441 | 0.445
NCI-H2087 | 0.811 | 1.14 | 1.21 | 0.872 | 0.676 | 0.629 | 0.677 | 0.608 | 0.785 | 0.788 | 0.878 | 0.857 | 0.837 | 0.845 | 0.781 | 0.985 | 0.216 | 0.238 | 0.275 | 0.236
NCI-H2126 | 0.787 | 0.778 | 0.761 | 0.749 | 0.682 | 0.671 | 0.674 | 0.674 | 0.509 | 0.511 | 0.507 | 0.474 | 1.14 | 1.14 | 1.16 | 1.05 | 0.332 | 0.345 | 0.349 | 0.364
NCI-H2228 | 0.893 | 1.1 | 1.26 | 1.26 | 0.35 | 0.464 | 0.336 | 0.372 | 0.393 | 0.368 | 0.353 | 0.4 | 1.03 | 1.01 | 1.12 | 1.24 | 0.73 | 0.683 | 0.866 | 0.811
NCI-H2347 | 0.94 | 1.01 | 0.985 | 0.937 | 0.458 | 0.442 | 0.421 | 0.447 | 0.475 | 0.711 | 0.566 | 0.782 | 0.982 | 0.933 | 1.19 | 0.778 | 0.458 | 0.489 | 0.445 | 0.492
NCI-H2405 | 1.21 | 1.16 | 1.08 | 1.01 | 1.1 | – | 1.14 | 1.03 | 0.456 | 0.464 | 0.424 | 0.479 | 1 | 1.05 | 1.01 | 0.952 | 0.523 | – | 0.554 | 0.527
NCI-H3122 | 1 | 1.05 | 0.951 | 1.03 | 0.217 | 0.198 | 0.202 | 0.192 | 0.51 | 0.695 | 0.554 | 0.658 | 1.04 | 1.01 | 1.02 | 1.01 | 0.183 | 0.182 | 0.152 | 0.209
PC-3 [JPC-3] | 0.486 | 0.416 | 0.481 | 0.476 | 1.1 | – | 1.26 | 1.2 | 0.729 | 0.696 | 0.69 | 0.737 | 0.874 | 0.799 | 0.914 | 0.801 | 0.545 | – | 0.559 | 0.52
PC-14 | 0.293 | 0.287 | 0.303 | 0.315 | 0.133 | 0.14 | 0.141 | 0.149 | 0.73 | 0.58 | 0.758 | 0.879 | 0.966 | 0.932 | 0.807 | 0.919 | 0.555 | 0.525 | 0.526 | 0.514
RERF-LC-KJ | 0.897 | 0.882 | 0.909 | 0.86 | 0.473 | 0.448 | 0.472 | 0.481 | 0.488 | 0.455 | 0.508 | 0.55 | 1.01 | 1.03 | 1.02 | 1.01 | 1.09 | 1.1 | 1.09 | 1.13
SK-LU-1 | 0.879 | 0.879 | 0.897 | 1.04 | 0.933 | 1.06 | 1 | 1.04 | 0.559 | 0.581 | 0.717 | 0.614 | – | 1.36 | 1.29 | 1.29 | 0.389 | 0.45 | 0.371 | 0.412
SW 1573 | 1.03 | 1.02 | 1.23 | 0.985 | 0.855 | 0.884 | 0.844 | 0.791 | 0.51 | 0.519 | 0.464 | 0.551 | 0.994 | 1.14 | 0.935 | 1.04 | 0.39 | 0.384 | 0.399 | 0.451
UMC-11 | 1.12 | 0.909 | 1 | 0.9 | 0.867 | 0.846 | 0.761 | 0.845 | 0.891 | 0.865 | 0.767 | 0.853 | 0.714 | 0.649 | 0.674 | 0.836 | 0.333 | 0.336 | 0.336 | 0.279
